Source: patent publication US12428406B2 (PMV Pharmaceuticals, Inc., priority 2019, dated 2025)

Each compound was assayed against T1, p53 Y220C (Homo sapiens, UniProt P04637, Y220C) (assay: In vitro DNA binding activity assay (HTRF / TR-FRET): stabilization of p53 Y220C and increase of its DNA binding activity). Settings: recombinant His-tagged p53 Y220C DNA binding domain (aa 94-312), biotin-labeled consensus DNA, incubated at 27° C. or 29° C. for 60 min.
T1 construct: The recombinant protein was a truncation mutant containing only amino acids 94-312 of p53; made in house; host or cells: E. coli
T1 sequence (P04637 94-312, change not shown): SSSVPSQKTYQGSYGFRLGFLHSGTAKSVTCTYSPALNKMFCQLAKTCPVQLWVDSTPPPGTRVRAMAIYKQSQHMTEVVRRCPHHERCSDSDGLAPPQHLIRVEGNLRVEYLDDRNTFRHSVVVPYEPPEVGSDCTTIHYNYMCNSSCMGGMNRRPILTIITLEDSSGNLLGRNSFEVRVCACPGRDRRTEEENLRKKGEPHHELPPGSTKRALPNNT
Format: biochemical
Protocol: The ability of a compound of the invention to stabilize p53 Y220C and increase the DNA binding activity of p53 Y220C was measured by a homogeneous time-resolved fluorescence (HTRF) assay. Recombinant His-tagged p53 Y220C used in the HTRF assay was expressed in the bacterium E. coli.
The binding of the recombinant His-tagged p53 Y220C protein and the biotin-labeled consensus DNA was measured using fluorescence resonance energy transfer (FRET). For the FRET assay, the binding between the p53 mutant and the DNA sequence was measured by detecting the fluorescence of the interaction between an anti-His antibody conjugated to allophycocyanin (APC) and streptavidin conjugated to europium to detect the biotin-labeled DNA.
The test compounds were prepared as 4.5 mM stock solutions in dimethyl sulfoxide (DMSO). The compounds of the disclosure were used to test the stabilization of p53 Y220C and increase in DNA binding activity of p53 Y220C. The stock solutions were then serially diluted 3-fold in DMSO, and 1.2 μL of the diluted solutions was added to each well of a 384-well polypropylene black plate.
The test and control samples were spun at 1200 rpm for 1 minute and incubated at room temperature for 15 minutes. […] The plates were spun at 1200 rpm for 1 minute and incubated at room temperature for 20 minutes. The assay signals were monitored by reading excitation at 340 nm, and emission fluorescence at 615 nm and 665 nm on a plate reader.
The percentage of activation of protein DNA binding in the presence of a compound of the invention compared to the absence of the compound was denoted by a SC150 value, which indicated the concentration of the compound required to increase the DNA binding activity by 50%. The SC150 values were calculated using either Prism™ or ActivityBase™.

SC150 (concentration of the compound required to increase the DNA binding activity by 50%)	SMILES
++++ (++++ = 0.2 μM ≤ SC150 < 1 μM)	COc1cc(S(C)(=O)=O)ccc1NCC#Cc1cc2c(NC(=O)N[C@H]3CC[C@@H](N(C)C)CC3)cccc2n1CC(F)(F)F [Compound 10A, 3-(2-{3-[(4-methanesulfonyl-2-methoxyphenyl)amino]prop-1-yn-1-yl}-1-(2,2,2-trifluoroethyl)-1H-indol-4-yl)-1-[(1S,4S)-4-(dimethylamino)cyclohexyl]urea]
+ (+ = 0 μM ≤ SC150 < 0.05 μM)	COC(=O)c1ccc(NCC#Cc2cc3c(N[C@H]4CCN(CC(N)=O)C[C@H]4F)cccc3n2CC(F)(F)F)c(OC)c1 [Compound 915A, methyl 4-{[3-(4-{[(3R,4S)-1-(carbamoylmethyl)-3-fluoropiperidin-4-yl]amino}-1-(2,2,2-trifluoroethyl)-1H-indol-2-yl)prop-2-yn-1-yl]amino}-3-methoxybenzoate]
+ (+ = 0 μM ≤ SC150 < 0.05 μM)	COCCN1CC[C@@H](Nc2cccc3c2cc(C#CCNc2ccc(C(=O)OC)cc2OC)n3CC(F)(F)F)[C@@H](F)C1 [Compound 897A]
+ (+ = 0 μM ≤ SC150 < 0.05 μM)	CNC(=O)c1ccc(NCC#Cc2cc3c(N[C@H]4CC[C@H](N5CC6(COC6)C5)CC4)cccc3n2CC(F)(F)F)c(OCC#N)c1 [Compound 242A, 3-(cyanomethoxy)-N-methyl-4-{[3-(4-{[(1R,4R)-4-{2-oxa-6-azaspiro[3.3]heptan-6-yl}cyclohexyl]amino}-1-(2,2,2-trifluoroethyl)-1H-indol-2-yl)prop-2-yn-1-yl]amino}benzamide]
+ (+ = 0 μM ≤ SC150 < 0.05 μM)	COc1cc(S(C)(=O)=O)ccc1NCC#Cc1cc2c(N[C@@H]3CCN(C)C[C@H]3F)cccc2n1CC(F)(F)F (racemic) [Compound 769A, (rac)-N-((3R,4R)-3-fluoro-1-methylpiperidin-4-yl)-2-(3-((2-methoxy-4-(methylsulfonyl)phenyl)amino)prop-1-yn-1-yl)-1-(2,2,2-trifluoroethyl)-1H-indol-4-amine]
+ (+ = 0 μM ≤ SC150 < 0.05 μM)	COc1cc(S(=O)(=O)NC(C)=O)ccc1NCC#Cc1cc2c(N[C@H]3CCN(C)C[C@H]3F)cccc2n1CC(F)(F)F [Compound 838A, N-(4-{[3-(4-{[(3R,4S)-3-fluoro-1-methylpiperidin-4-yl]amino}-1-(2,2,2-trifluoroethyl)-1H-indol-2-yl)prop-2-yn-1-yl]amino}-3-methoxybenzenesulfonyl)acetamide]
+ (+ = 0 μM ≤ SC150 < 0.05 μM)	COc1cc(S(N)(=O)=O)ccc1NCC#Cc1cc2c(N[C@@H]3CCN(C)C[C@@H]3F)cccc2n1CC(F)(F)F [Compound 791A, 4-{[3-(4-{[(3S,4R)-3-fluoro-1-methylpiperidin-4-yl]amino}-1-(2,2,2-trifluoroethyl)-1H-indol-2-yl)prop-2-yn-1-yl]amino}-3-methoxybenzene-1-sulfonamide]
+++ (+++ = 0.1 μM ≤ SC150 < 0.2 μM)	COc1cc(C(N)=O)ccc1NCC#Cc1cc2c(N[C@H]3C[C@@H](C)O[C@@H](C)C3)cccc2n1CC(F)(F)F [Compound 1029A, 3-methoxy-4-{[3-(4-{[(2R,4R,6S)-2,6-dimethyloxan-4-yl]amino}-1-(2,2,2-trifluoroethyl)-1H-indol-2-yl)prop-2-yn-1-yl]amino}benzamide]
+ (+ = 0 μM ≤ SC150 < 0.05 μM)	COc1cc(S(N)(=O)=O)ccc1NCC#Cc1cc2c(N[C@H]3CC[C@@H](N(CCO)CCO)CC3)cccc2n1CC(F)(F)F [Compound 45A, 3-methoxy-4-{[3-(4-{[(1S,4S)-4-[bis(2-hydroxyethyl)amino]cyclohexyl]amino}-1-(2,2,2-trifluoroethyl)-1H-indol-2-yl)prop-2-yn-1-yl]amino}benzene-1-sulfonamide]

The remaining lines, values behind:

SMILES	SC150 (concentration of the compound required to increase the DNA binding activity by 50%)
CNC(=O)c1ccc(NCC#Cc2cc3c(N[C@H]4CC[C@@H](N5CCOCC5)CC4)cccc3n2CC(F)(F)F)c(OC)c1 [Compound 173A, 3-methoxy-N-methyl-4-{[3-(4-{[(1S,4S)-4-(morpholin-4-yl)cyclohexyl]amino}-1-(2,2,2-trifluoro-ethyl)-1H-indol-2-yl)prop-2-yn-1-yl]amino}benzamide]	+ (+ = 0 μM ≤ SC150 < 0.05 μM)
COc1cc(C(=O)NC[C@H](O)CO)ccc1NCC#Cc1cc2c(N[C@@H]3CCN(C)C[C@@H]3F)cccc2n1CC(F)(F)F [Compound 964A, N-[(2S)-2,3-dihydroxypropyl]-4-{[3-(4-{[(3S,4R)-3-fluoro-1-methylpiperidin-4-yl]amino}-1-(2,2,2-trifluoroethyl)-1H-indol-2-yl)prop-2-yn-1-yl]amino}-3-methoxybenzamide]	+ (+ = 0 μM ≤ SC150 < 0.05 μM)
CCS(=O)(=O)c1ccc(NCC#Cc2cc3c(N[C@H]4CC[C@H](N5CC6(CCOCC6)C5)CC4)cccc3n2CC(F)(F)F)c(OC)c1 [Compound 314A, 2-(3-{[4-(ethanesulfonyl)-2-methoxyphenyl]amino}prop-1-yn-1-yl)-N-[(1R,4R)-4-{7-oxa-2-azaspiro[3.5]nonan-2-yl}cyclohexyl]-1-(2,2,2-trifluoroethyl)-1H-indol-4-amine]	+ (+ = 0 μM ≤ SC150 < 0.05 μM)
COc1cc(S(C)(=O)=O)ccc1NCC#Cc1cc2c(NC3CCN(CC(COC(=O)C(C)C)OC(=O)C(C)C)CC3)cccc2n1CC(F)(F)F (centres unmarked) [Compound 588A, 1-{4-[(2-{3-[(4-methanesulfonyl-2-methoxyphenyl)amino]prop-1-yn-1-yl}-1-(2,2,2-trifluoroethyl)-1H-indol-4-yl)amino]piperidin-1-yl}-3-[(2-methylpropanoyl)oxy]propan-2-yl 2-methylpropanoate]	+++ (+++ = 0.1 μM ≤ SC150 < 0.2 μM)
COc1cc(S(C)(=O)=O)ccc1NCC#Cc1cc2c(NC3CC4(CNC4)C3)cccc2n1CC(F)(F)F [Compound 22A, N-{2-azaspiro[3.3]heptan-6-yl}-2-{3-[(4-methane-sulfonyl-2-methoxy-phenyl)amino]prop-1-yn-1-yl}-1-(2,2,2-trifluoroethyl)-1H-indol-4-amine]	+ (+ = 0 μM ≤ SC150 < 0.05 μM)
CCS(=O)(=O)c1ccc(NCC#Cc2cc3c(N[C@@H]4CCN(C(=O)OC(C)(C)C)C[C@@H]4F)cccc3n2CC(F)(F)F)c(OC)c1 [Compound 922A, tert-butyl (3S,4R)-4-{[2-(3-{[4-(ethanesulfonyl)-2-methoxyphenyl]amino}prop-1-yn-1-yl)-1-(2,2,2-trifluoroethyl)-1H-indol-4-yl]amino}-3-fluoropiperidine-1-carboxylate]	++ (++ = 0.05 μM ≤ SC150 < 0.1 μM)
COc1cc(S(N)(=O)=O)ccc1NCC#Cc1cc2c(N[C@H]3CC[C@H](N4CCC5(CC4)COC5)CC3)cccc2n1CC(F)(F)F [Compound 377A, 3-methoxy-4-{[3-(4-{[(1R,4R)-4-{2-oxa-7-azaspiro[3.5]nonan-7-yl}cyclohexyl]amino}-1-(2,2,2-trifluoroethyl)-1H-indol-2-yl)prop-2-yn-1-yl]amino}benzene-1-sulfonamide]	+ (+ = 0 μM ≤ SC150 < 0.05 μM)
COc1cc(S(=O)(=O)N(C)C)ccc1NCC#Cc1cc2c(NC3CCN(C(C)=O)CC3)cccc2n1CC(F)(F)F [Compound 755A, 4-[(3-{4-[(1-acetylpiperidin-4-yl)amino]-1-(2,2,2-trifluoroethyl)-1H-indol-2-yl}prop-2-yn-1-yl)amino]-3-methoxy-N,N-dimethylbenzene-1-sulfonamide]	+ (+ = 0 μM ≤ SC150 < 0.05 μM)
COc1cc(C(=O)O)ccc1NCC#Cc1cc2c(N[C@@H]3CCN(CC(=O)O)C[C@@H]3F)cccc2n1CC(F)(F)F [Compound 934A, 4-{[3-(4-{[(3S,4R)-1-(carboxymethyl)-3-fluoropiperidin-4-yl]amino}-1-(2,2,2-trifluoroethyl)-1H-indol-2-yl)prop-2-yn-1-yl]amino}-3-methoxybenzoic acid]	+ (+ = 0 μM ≤ SC150 < 0.05 μM)
COc1cc(S(C)(=O)=O)ccc1NCC#Cc1cc2c(NC3CCC(N(C)C)CC3F)cccc2n1CC(F)(F)F (centres unmarked) [Compound 41A]	+ (+ = 0 μM ≤ SC150 < 0.05 μM)
COc1cc(S(N)(=O)=O)ccc1NCC#Cc1cc2c(NC3CCOCC3)c(OC)ccc2n1CC(F)(F)F [Compound 1010A, 3-methoxy-4-[(3-{5-methoxy-4-[(oxan-4-yl)amino]-1-(2,2,2-trifluoroethyl)-1H-indol-2-yl}prop-2-yn-1-yl)amino]benzene-1-sulfonamide]	++++ (++++ = 0.2 μM ≤ SC150 < 1 μM)
